This passage reports IC50 results from patent publication US4572908A, “Dihydropyridines” (Pfizer Inc., priority 1982, dated 1986).

Structures are written as SMILES.

The test concerns rat aorta. Nature of the test: inhibition of calcium-induced contraction (change in tension) of spirally cut strips of rat aorta in K+ 45 mM saline. The format is cell-based. The note with it: 0.75 h, 45 millimolar potassium, 2 millimolar calcium, 45 minutes, read-out: IC50 (molar concentration required to reduce the response by 50%). On the procedure:
The ability of the compounds to inhibit the movement of calcium into the cell is shown by their effectiveness in reducing the response of isolated heart tissue to an increase in calcium ion concentration in vitro. The test is performed by mounting spirally cut strips of rat aorta with one end fixed and the other attached to a force transducer. The tissue is immersed in a bath of physiological saline solution containing potassium ions at a concentration of 45 millimolar and no calcium. Calcium chloride is added to the bath with a pipette to give a final calcium ion concentration of 2 millimolar. The change in tension caused by the resulting contraction of the tissue is noted. The bath is drained and replaced with fresh saline solution and, after 45 minutes, the test is repeated with the particular compound under test present in the saline solution. The concentration of compound required to reduce the response by 50% (IC50) is recorded.
The molar concentrations of the compounds required to reduce the response by 50% in the test specified on pages 16-17 are given below (1M=1 gm.Mole/liter).
As for `CCOC(=O)C1=C(COCCNc2nc(N)n[nH]2)NC(C)=C(C(=O)OC)C1c1ccccc1Cl` (stereo not shown) [Example 1B, 2-[2-(3-Amino-1H-1,2,4-triazol-5-ylamino)ethoxymethyl]-4-(2-chlorophenyl)-3-ethoxycarbonyl-5-methoxycarbonyl-6-methyl-1,4-dihydropyridine], the IC50 amounted to 20 nM.
The result for `CCOC(=O)C1=C(COCCNc2nc(N)n[nH]2)NC(C)=C(C(=O)OC)C1c1cccc(C(F)(F)F)c1Cl` (stereo not shown) [Example 2, 2-[2-(3-Amino-1H-1,2,4-triazol-5-ylamino)ethoxymethyl]-4-(2-chloro-3-trifluoromethylphenyl)-3-ethoxycarbonyl-5-methoxycarbonyl-6-methyl-1,4-dihydropyridine] reads 2.29 nM; that for `CCOC(=O)C1=C(COCCNc2nnc(N)[nH]2)NC(C)=C(C(=O)OC)C1c1cccc(Cl)c1Cl` (stereo not shown) [Example 3B], 6.02 nM; that for `CCOC(=O)C1=C(COCCNc2nc(N)n(C)n2)NC(C)=C(C(=O)OC)C1c1ccccc1Cl` (stereo not shown) [Example 4], 8.12 nM.
Next, `CCOC(=O)C1=C(COCCNc2nc(N)n(C)n2)NC(C)=C(C(=O)OC)C1c1cccc(Cl)c1Cl` (stereo not shown) [Example 5]: 3.02 nM; `CCOC(=O)C1=C(COCCNc2noc(N)n2)NC(C)=C(C(=O)OC)C1c1ccccc1Cl` (stereo not shown) [Example 6, 2-[2-(5-Amino-1,2,4-oxadiazol-3-ylamino)ethoxymethyl]-4-(2-chlorophenyl)-3-ethoxycarbonyl-5-methoxycarbonyl-6-methyl-1,4-dihydropyridine]: 11.5 nM; `CCOC(=O)C1=C(COCCNc2noc(N)n2)NC(C)=C(C(=O)OC)C1c1cccc(C(F)(F)F)c1Cl` (stereo not shown) [Example 7]: 3.47 nM.
The result for `CCOC(=O)C1=C(COCCNc2nccc(=O)[nH]2)NC(C)=C(C(=O)OC)C1c1ccccc1Cl` (stereo not shown) [Example 8, 4-(2-Chlorophenyl)-3-ethoxycarbonyl-5-methoxycarbonyl-6-methyl-2-[2-(3,4-dihydro-4-oxo-pyrimidin-2-ylamino)ethoxymethyl]-1,4-dihydropyridine] reads 10.5 nM.
Regarding `CCOC(=O)C1=C(COCCNC2=NCC(=O)N2)NC(C)=C(C(=O)OC)C1c1ccccc1Cl` (stereo not shown) [Example 9], the IC50 was 12.6 nM.
The result for `CCOC(=O)C1=C(COCCNc2ccncn2)NC(C)=C(C(=O)OC)C1c1ccccc1Cl` (stereo not shown) [Example 10] reads 1.9 nM; that for `CCOC(=O)C1=C(COCCNc2nc(N)nc(N)n2)NC(C)=C(C(=O)OC)C1c1ccccc1Cl` (stereo not shown) [Example 11], 426 nM.
Next, `CCOC(=O)C1=C(COCCNc2cc[nH]c(=O)n2)NC(C)=C(C(=O)OC)C1c1ccccc1Cl` (stereo not shown) [Example 12]: 28.8 nM; `CCOC(=O)C1=C(COCCNc2ccnc(N)n2)NC(C)=C(C(=O)OC)C1c1ccccc1Cl` (stereo not shown) [Example 13]: 6.3 nM; `CCOC(=O)C1=C(COCCNc2cc(=O)[nH]cn2)NC(C)=C(C(=O)OC)C1c1ccccc1Cl` (stereo not shown) [Example 14]: 10 nM.
`CCOC(=O)C1=C(COCCNc2cc(=O)n(C)c(=O)n2C)NC(C)=C(C(=O)OC)C1c1ccccc1Cl` (stereo not shown) [Example 15]: the IC50 worked out at 50.1 nM.
For `CCOC(=O)C1=C(COCCNc2ncnc3[nH]cnc23)NC(C)=C(C(=O)OC)C1c1ccccc1Cl` (stereo not shown) [Example 16], the IC50 was found to be 100 nM.
Next, `CCOC(=O)C1=C(COCCNc2nc3cc(OC)c(OC)cc3c(=O)[nH]2)NC(C)=C(C(=O)OC)C1c1ccccc1Cl` (stereo not shown) [Example 17]: 13.1 nM.
The result for `CCOC(=O)C1=C(COCCNc2ccnc(Cl)n2)NC(C)=C(C(=O)OC)C1c1ccccc1Cl` (stereo not shown) [Example 18] reads 31.6 nM.
`CCOC(=O)C1=C(COCCNc2nc3ccccc3s2)NC(C)=C(C(=O)OC)C1c1ccccc1Cl` (stereo not shown) [Example 19]: the IC50 was 10 nM.
Next, `CCOC(=O)C1=C(COCCNC2=NCCC2)NC(C)=C(C(=O)OC)C1c1ccccc1Cl` (stereo not shown) [Example 20]: 100 nM; `CCOC(=O)C1=C(COCCNC2=NCCN2)NC(C)=C(C(=O)OC)C1c1ccccc1Cl` (stereo not shown) [Example 21]: 100 nM; `CCOC(=O)C1=C(COCCNc2ccc(C(N)=O)cn2)NC(C)=C(C(=O)OC)C1c1ccccc1Cl` (stereo not shown) [Example 22]: 18.2 nM.
Next, `CCOC(=O)C1=C(COCCNC2=NC(C)(C)C(=O)N2)NC(C)=C(C(=O)OC)C1c1ccccc1Cl` (stereo not shown) [Example 23]: 100 nM.
Next, `CCOC(=O)C1=C(COCCNc2nc(C)cc(=O)[nH]2)NC(C)=C(C(=O)OC)C1c1ccccc1Cl` (stereo not shown) [Example 24]: 10 nM.
Regarding `CCOC(=O)C1=C(COCCNc2ncccc2C(N)=O)NC(C)=C(C(=O)OC)C1c1ccccc1Cl` (stereo not shown) [Example 25], the IC50 was found to be 45.7 nM.
With `CCOC(=O)C1=C(COCCNc2ncc(S(=O)(=O)N(C)C)s2)NC(C)=C(C(=O)OC)C1c1ccccc1Cl` (stereo not shown) [Example 26], the IC50 is 3.71 nM.
The result for `CCOC(=O)C1=C(COCCNc2nccc(N)n2)NC(C)=C(C(=O)OC)C1c1ccccc1Cl` (stereo not shown) [Example 27] reads 3.98 nM; that for `CCOC(=O)C1=C(COCCNc2nccc(C#N)n2)NC(C)=C(C(=O)OC)C1c1ccccc1Cl` (stereo not shown) [Example 28], 13.1 nM; that for `CCOC(=O)C1=C(COCCNc2nccc(C(N)=O)n2)NC(C)=C(C(=O)OC)C1c1ccccc1Cl` (stereo not shown) [Example 29], 18.1 nM.
The result for `CCOC(=O)C1=C(COCCNc2cc(=O)n(C)cn2)NC(C)=C(C(=O)OC)C1c1ccccc1Cl` (stereo not shown) [Example 30] reads 2.34 nM; that for `CCOC(=O)C1=C(COCCNc2cc(Cl)ncn2)NC(C)=C(C(=O)OC)C1c1ccccc1Cl` (stereo not shown) [Example 31], 17.7 nM.
The result for `CCOC(=O)C1=C(COCCNc2nccnc2Cl)NC(C)=C(C(=O)OC)C1c1ccccc1Cl` (stereo not shown) [Example 32] reads 15.8 nM; that for `CCOC(=O)C1=C(COCCNc2cncc(Cl)n2)NC(C)=C(C(=O)OC)C1c1ccccc1Cl` (stereo not shown) [Example 33], 6.3 nM.
For the compound `CCOC(=O)C1=C(COCCNc2nc(N)c3cc(OC)c(OC)cc3n2)NC(C)=C(C(=O)OC)C1c1ccccc1Cl` (stereo not shown) [Example 34], the IC50 came out at 13.1 nM.
Next, `CCOC(=O)C1=C(COCCNc2ccc(S(N)(=O)=O)cn2)NC(C)=C(C(=O)OC)C1c1ccccc1Cl` (stereo not shown) [Example 35]: 5.75 nM; `CCOC(=O)C1=C(COCCNc2ccc(S(=O)(=O)N3CCN(C=O)CC3)cn2)NC(C)=C(C(=O)OC)C1c1ccccc1Cl` (stereo not shown) [Example 36]: 3.16 nM.
Next, `CCOC(=O)C1=C(COCCNC2=NCC(=O)N2)NC(C)=C(C(=O)OC)C1c1cccc(Cl)c1Cl` (stereo not shown) [Example 37]: 10 nM; `CCOC(=O)C1=C(COCCNC2=NC(C)(C)C(=O)N2)NC(C)=C(C(=O)OC)C1c1cccc(Cl)c1Cl` (stereo not shown) [Example 38]: 25.1 nM; `CCOC(=O)C1=C(COCCNc2nccc(=O)[nH]2)NC(C)=C(C(=O)OC)C1c1cccc(Cl)c1Cl` (stereo not shown) [Example 39]: 2.69 nM.
Next, `CCOC(=O)C1=C(COCCNc2ccnc(N)n2)NC(C)=C(C(=O)OC)C1c1cccc(Cl)c1Cl` (stereo not shown) [Example 40]: 2.23 nM; `CCOC(=O)C1=C(COCCNc2cc(=O)[nH]cn2)NC(C)=C(C(=O)OC)C1c1cccc(Cl)c1Cl` (stereo not shown) [Example 41]: 0.776 nM.
On to `CCOC(=O)C1=C(COCCNc2nc(C)cc(=O)[nH]2)NC(C)=C(C(=O)OC)C1c1cccc(Cl)c1Cl` (stereo not shown) [Example 42], for which the IC50 was determined as 4.16 nM.
`CCOC(=O)C1=C(COCCNc2nc(-c3ccccc3)cc(=O)[nH]2)NC(C)=C(C(=O)OC)C1c1cccc(Cl)c1Cl` (stereo not shown) [Example 43]: the IC50 was 8.31 nM.
